Tested on: angiotensin converting enzyme
Test: in vitro spectrophotometric assay for inhibition of angiotensin converting enzyme (method of Cushman and Cheung)
Assay type: biochemical
Details: crude extract of ACE from rabbit lung acetone powder; substrate benzoyl-glycyl-histidyl-leucine; 30 minutes at 37° C.; result in words only
Protocol: The in vitro activity for inhibition of the angiotensin converting enzyme was measured by the method of D. W. Cushman and H. S. Cheung, Biochem. Pharmacol., Vol. 20, pages 1637-1648 (1972), using benzoyl-glycyl-histidyl-leucine as the substrate. The reaction mixture consisted of 50 μl. of potassium phosphate (500 mM., pH of […]), 30 μl. of sodium chloride (2500 mM.), 25 μl. of substrate (50 mM.), 30 to 50 μl. of the crude extract of ACE, 10 μl. of the test compound (2.5 mM.) or vehicle, and a suitable amount of distilled water to give a total volume of 250 μl. This reaction mixture was incubated for 30 minutes at 37° C. and the reaction was then terminated by the addition of 250 μl. of 1 N hydrochloric acid. The hippuric acid was then extracted with 1.5 ml. of ethyl acetate by vortex mixing for 15 seconds. After centrifugation, one ml. of the ethyl acetate layer was pipetted into a new tube and evaporated to dryness. The extracted hippuric acid was then dissolved in one ml. of water and the amount of this acid was then measured by its absorbance at 228 nm. […] The activity of the ACE inhibitor was calculated as the percent inhibition of ACE activity compared to the control value of that particular assay. […]

| inhibition of the angiotensin converting enzyme | Structure (SMILES) |
| --- | --- |
| angiotensin converting enzyme inhibitors | CC(=O)SC(CC(=O)N[C@H](C(=O)O)C(C)C)C(=O)c1ccc(Br)cc1 (stereo partly drawn) [Example 1, N-[3-Acetylthio-3-(4-bromobenzoyl)propionyl]-L-valine] |
| angiotensin converting enzyme inhibitors | COc1ccc(C(=O)C(CC(=O)N[C@@H](Cc2ccccc2)C(=O)O)SC(C)=O)cc1F (stereo partly drawn) [Example 23, N-[3-Acetylthio-3-(3-fluoro-4-methoxybenzoyl)propionyl]-L-phenylalanine] |

— patent US4435329A, “Substituted N-(ω-aroylpropionyl) derivatives of α-amino acids and esters thereof” (American Cyanamid Company, priority 1981, dated 1984)
